Experimental data from patent US20010009995A1, “Oxybutynin therapy” (priority 1998, published 2001).

Conditions: human, in vivo

CCNCC#CCOC(=O)C(O)(c1ccccc1)C1CCCCC1 (stereo not shown) [DESOXY, desethyloxybutynin]
t1/2 life of DESOXY compared to OXY: shorter
